Laboratory results published in paper PMC11124387, “A Reliable Multifaceted Solution against Foodborne Viral Infections: The Case of RiLK1 Decapeptide” (Molecules, 2024).
Read-outs that look alike come from different tables or passages of the source.

Columns and labels:
[1] = pH 2; cited from earlier work
Experimental: In this context, to acquire important information on how the conformational properties of peptides might influence the structure–function relationships and their distinct membrane interaction profiles, the propensity of the new peptides, RiLK30 and AVP2, to adopt a defined secondary structure and to undergo conformational changes were examined by circular dichroism and fluorescence spectroscopy. These analyses were performed in the presence of a negatively charged SDS that is commonly used as a biomimetic membrane model to study the structural features of membranotropic molecules. In previous ...

[2] = test system: Murine norovirus strain 1 (MNV-1); type: cell-based; conditions: for Viral Titre after Treatment: titration on RAW 264.7 cells; for Viral Titre after Treatment / LRV (log reduction value): mean ± SD, triplicate
Source text: (§1) Murine norovirus strain 1 (MNV-1) was used as a surrogate for human norovirus (NoV). The virus was replicated in RAW 264.7 cells (murine macrophage cell line) cultured in Dulbecco’s modified Eagle’s medium (DMEM) supplemented with 1% glutamine, 1% non-essential amino acids, and 2% fetal bovine serum (FBS). Hepatitis A virus (HAV) strain HM-175 was replicated in Frp3 cells (non-human primate cell line derived from fetal kidney) cultured in minimum essential medium (MEM) with Earle’s salts supplemented with 1% glutamine, 2% non-essential amino acids, and 2% FBS. Both viruses were incubated in 5% CO2 at 37 °C. All cell culture media were provided by EuroClone (Milan, Italy). The viral suspensions were prepared by freeze and thaw lysis (1 cycle for MNV-1 and 3 cycles for HAV) of infected monolayers, clarified using low-speed centrifugation (800× g) to remove residual cell debris, then divided in aliquots, and stored at −80 °C until use.
(§2) Solutions 40 µM and 80 µM of each peptide of the panel (RiLK1, RiLK3, RiLK30, 1018-K6, MTP1, and AVP2) were chosen for the virucidal tests. HAV and MNV-1 were assayed at a concentration of 4.7 ± 0.2 log TCID50/mL and 4.5 ± 0.2 log TCID50/mL, respectively. The suspensions containing the peptides and viruses were incubated for 1 h at room temperature (RT,20 ± 2 °C) and 4 °C. These temperatures were chosen to simulate the use of sanitizing solutions in food production/processing environments. Residual viral infectivity was evaluated by titration (TCID50/mL) on Frp3 cells for HAV and on RAW 264.7 cells for MNV-1. Untreated HAV and MNV-1 suspensions and 40 µM and 80 µM AMP solutions, incubated at the same conditions, were used as controls. Each treatment condition was assayed in triplicate. For titration, 100 µL of serial tenfold dilutions of each sample were assayed in 24-well tissue culture plates containing 24–48 h cell monolayers and incubated for 1 h in 5% CO2 at 37 °C. After that, the wells were washed twice with 200 µL of PBS, and 500 µL of DMEM/MEM, supplemented with 2% of FBS, were was added to each well; MNV-1 and HAV incubations were carried for up to 6 days and 14 days, respectively, in 5% CO2 at 37 °C with daily visual inspection to determine the cytopathic effect. The virucidal efficacy of AMPs was estimated by comparing the titers of treated and untreated viral suspensions.
(§3) For each treatment, the average and standard deviation of the triplicate analyses were calculated. The virucidal effects of AMPs was assessed by calculating the log reduction value (LRV), i.e., the difference between the infectious titer (log-transformed) of untreated versus treated samples. The statistical significance of differences between treated and untreated samples was determined through one-way analysis of variance (ANOVA) with Bonferroni post hoc comparisons, with a significance level of p < 0.05 (GraphPad Prism v9.5.0, software San Diego, CA, USA).

[3] = test system: Hepatitis A virus (HAV) strain HM-175; assay: Virucidal effect of peptides on HAV (residual infectivity by TCID50 titration on Frp3 cells); type: cell-based; conditions: for Viral Titre after Treatment: titration on Frp3 cells; for Viral Titre after Treatment / LRV (log reduction value): mean ± SD, triplicate
Source text: as §1, §2, §3

Salmonella Napoli = assay: Antibacterial assay, Salmonella Napoli; type: cell-based; conditions: even at the highest concentration tested (80 µM), 6 h at 37 °C
Source text: (§4) The monophasic variant of Salmonella Typhimurium, Salmonella Napoli, and Campylobacter jejuni were isolated by the Laboratory of Microbiological Food Control—Department of Food Microbiology of the Istituto Zooprofilattico Sperimentale del Mezzogiorno in Portici (Naples, Italy) in raw and processed foodstuffs of animal origin. Specifically, the monophasic variant of S. Typhimurium and S. Napoli were isolated from bivalve mollusks, while C. jejuni was isolated from poultry meat. Bacterial cells were cultured at 37 °C in the appropriate culture media (S. Typhimurium and S. Napoli in buffered peptone water (Thermo Fisher, Milan, Italy) and C. jejuni in Bolton Broth (Oxoid, Madrid, Spain)) until collection and then diluted in fresh broth to a final concentration of 1.5 × 10^3 colony forming units (CFUs)/mL. Thereafter, peptide stock solutions in DMSO were added to the bacterial suspension at the same concentrations used in the virucidal assays (40 and 80 µM) and incubated at 37 °C for 6 h. Samples containing only cell suspension and DMSO were used as controls. […]

Campylobacter jejuni = type: cell-based; conditions: peptide 40 and 80 µM, 6 h at 37 °C
Source text: as §4

[4] = MNV-1 + peptide 40 µM, 1 h at 4 °C
[5] = MNV-1 + peptide 40 µM, 1 h at RT (20 ± 2 °C)
[6] = MNV-1 + peptide 80 µM, 1 h at RT (20 ± 2 °C)
[7] = HAV + peptide 40 µM, 1 h at RT (20 ± 2 °C)
[8] = HAV + peptide 80 µM, 1 h at RT (20 ± 2 °C)

In the case of “KVSGVLFGTGLWVAL-NH2 [MTP1, previously designed 15-residue antimicrobial peptide, C-terminally amidated]”, the structural stability [1] is listed as “high structural stability”, the “virucidal activity toward MNV-1 (in words)” value ([2]; 40 and 80 µM, 4 °C and RT) is listed as “no significant effects” and the “Viral Titre after Treatment” value ([2]; MNV-1 4.5 ± 0.2 log TCID50/mL + peptide 80 µM, 1 h at 4 °C) is listed as 4.5 ± 0.1 logTCID50/mL. The “LRV (log reduction value)” value [2, 4] was 0.1 ± 0.3 logTCID50/mL, the “Viral Titre after Treatment” value [2, 4] was 4.4 ± 0.1 logTCID50/mL and the “LRV (log reduction value)” value [2, 5] was 0 ± 0.4 logTCID50/mL. For the same substance, the “Viral Titre after Treatment” value [2, 5] was 4.5 ± 0.2 logTCID50/mL, the “LRV (log reduction value)” value ([2]; MNV-1 + peptide 80 µM, 1 h at 4 °C) was 0 ± 0.3 logTCID50/mL and the “LRV (log reduction value)” value [2, 6] was 0 ± 0.4 logTCID50/mL. The “Viral Titre after Treatment” value [2, 6] was 4.5 ± 0.2 logTCID50/mL, the “Viral Titre after Treatment” value ([3]; HAV 4.7 ± 0.2 log TCID50/mL + peptide 80 µM, 1 h at 4 °C) was 3.8 ± 0.2 logTCID50/mL and the “Viral Titre after Treatment” value ([3]; HAV + peptide 40 µM, 1 h at 4 °C) was 3.6 ± 0.3 logTCID50/mL. For the same substance, the “LRV (log reduction value)” value ([3]; HAV + peptide 40 µM, 1 h at 4 °C, untreated minus treated titre) was 1.1 ± 0.2 logTCID50/mL, the “LRV (log reduction value)” value [3, 7] was 1.5 ± 0.4 logTCID50/mL and the “Viral Titre after Treatment” value [3, 7] was 3.2 ± 0.2 logTCID50/mL. For the same substance, the “LRV (log reduction value)” value ([3]; HAV + peptide 80 µM, 1 h at 4 °C, untreated minus treated titre) was 0.9 ± 0.4 logTCID50/mL, the “LRV (log reduction value)” value [3, 8] was 1.2 ± 0.3 logTCID50/mL and the “Viral Titre after Treatment” value [3, 8] was 3.5 ± 0.1 logTCID50/mL. For the same substance, the “decrease of HAV infectious titer” value ([3]; maximum reduction, corresponding to the highest LRV) was “up to 97.3%”, the “bactericidal activity (growth inhibition on selective plates)” value (Salmonella Napoli) was “no detectable killing effects” and the “inhibitory activity against Campylobacter jejuni (in words)” value (Campylobacter jejuni) was “did not display any inhibitory activity”.
